Laboratory results taken from US7928238B2, “1,2,3,4-tetrahydro-quinoline derivatives as CETP inhibitors” (Janssen Pharmaceutica NV, priority 2006, dated 2011).
Where “and” joins values, the source holds several entries; their conditions need not be identical. Equal values may be shown once. Each block holds one molecule with its values, some of them ahead of it.

Biological target: T1, CETP (Homo sapiens, UniProt P11597)
T1 construct: from tissue; host or cells: human plasma from normal volunteers
T1 sequence (P11597 18-493): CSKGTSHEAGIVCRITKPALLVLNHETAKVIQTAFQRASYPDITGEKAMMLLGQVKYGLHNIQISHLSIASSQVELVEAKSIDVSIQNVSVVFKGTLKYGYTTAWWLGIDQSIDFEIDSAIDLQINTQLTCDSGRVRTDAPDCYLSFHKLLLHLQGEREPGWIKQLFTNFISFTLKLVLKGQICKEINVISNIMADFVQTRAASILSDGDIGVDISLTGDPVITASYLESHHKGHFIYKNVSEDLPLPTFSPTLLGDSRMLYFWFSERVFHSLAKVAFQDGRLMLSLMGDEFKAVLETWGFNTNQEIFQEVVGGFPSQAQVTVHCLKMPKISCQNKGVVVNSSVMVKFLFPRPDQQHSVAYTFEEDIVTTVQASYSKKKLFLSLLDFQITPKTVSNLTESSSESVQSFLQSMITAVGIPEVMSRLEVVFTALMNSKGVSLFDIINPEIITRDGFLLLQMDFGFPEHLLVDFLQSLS
Assay: CETP in vitro assay (Amersham kit TRKQ7005; modified protocol in human plasma, [3H]CE-HDL transfer)
Format: biochemical
Settings: for % Inhibition @ 1 μM / inhibition at 1 µM: 1 μM compound; for inhibition at 1 µM: read-out: % Inhibition @ 1 μM; for IC50: from plots of % control versus compound concentration
Experimental: The CETP inhibitory activity of the compounds was determined using a commercially available kit from Amersham Biosciences (Catalog #TRKQ7005).
Briefly, 80 μl of human plasma (obtained from normal volunteers), approximately 25 μg/ml (20 μl) of [^3H]CE-HDL (Amersham Biosciences from kit TRKQ7005) and 1 μl of compound dissolved in DMSO was incubated for at least 4 hrs at 37° C. and non-specific transfer was determined by incubating a corresponding plate at 4° C. (blank). After the incubation period, 10 μl of a solution of 1% Dextralip 50/0.5M MgCl2, pH 7.4 was added, vortexed and incubated at room temperature for 10 min. The plate was then centrifuged for 30 min at 10° C. at 300 rpm in a Sorvall RT6000B centrifuge. Fifty microliters of the supernatant was transferred to a Picoplate (Packard) containing 100 μl of Microscint 40 (Perkin Elmer) and mixed for 30 min using a plate mixer. The radioactivity was counted using a TopCount (Perkin Elmer) and the % control was determined in the samples using the following formula: % transfer relative to vehicle controls (% control)=[cpm blank−cpm test]/cpm blank/cpm control]×100. IC50s were calculated from plots of the % control versus compound concentration.

Compound: N#Cc1cccc(-c2cccc3c2CCC(c2cccc(OC(F)(F)C(F)F)c2)N3CC(O)C(F)(F)F)c1 (stereo not drawn) [Compound 9, 3-[2-[3-(1,1,2,2-Tetrafluoro-ethoxy)-phenyl]-1-(3,3,3-trifluoro-2-hydroxy-propyl)-1,2,3,4-tetrahydro-quinolin-5-yl]-benzonitrile]
% Inhibition @ 1 μM: 82% and 85%
IC50: 177 nM and 293 nM

Compound: O=C(CN1CCOCC1)N1c2cccc(-c3cccc(OC(F)(F)F)c3)c2CCC1c1cccc(OC(F)(F)F)c1 (stereo not drawn) [Compound 88, 1-[2,5-Bis-(3-trifluoromethoxy-phenyl)-3,4-dihydro-2H-quinolin-1-yl]-2-morpholin-4-yl-ethanone]
inhibition at 1 µM: 0%

Compound: OC(CN1c2cccc(-c3ccc(C(F)(F)F)cc3)c2CCC1c1cccc(OC(F)(F)C(F)F)c1)C(F)(F)F (stereo not drawn) [Compound 4, 1,1,1-Trifluoro-3-[2-[3-(1,1,2,2-tetrafluoro-ethoxy)-phenyl]-5-(4-trifluoromethyl-phenyl)-3,4-dihydro-2H-quinolin-1-yl]-propan-2-ol]
% Inhibition @ 1 μM: 1%

Compound: Oc1cccc(-c2cccc3c2CCC(c2cccc(OC(F)(F)C(F)F)c2)N3CC(O)C(F)(F)F)c1 (stereo not drawn) [Compound 43, 3-[2-[3-(1,1,2,2-Tetrafluoro-ethoxy)-phenyl]-1-(3,3,3-trifluoro-2-hydroxy-propyl)-1,2,3,4-tetrahydro-quinolin-5-yl]-phenol]
% Inhibition @ 1 μM: 23%

Compound: CCC1CCc2c(-c3cccc(OC(F)(F)F)c3)cccc2N1Cc1cccc(OC(F)(F)F)c1 (stereo not drawn) [Compound 39, 2-Ethyl-1-(3-trifluoromethoxy-benzyl)-5-(3-trifluoromethoxy-phenyl)-1,2,3,4-tetrahydro-quinoline]
inhibition at 1 µM: 17%

Compound: CC(C)c1cccc(-c2cccc3c2CCC(c2cccc(OC(F)(F)C(F)F)c2)N3CC(O)C(F)(F)F)c1 (stereo not drawn) [Compound 66, 1,1,1-Trifluoro-3-{5-(3-isopropyl-phenyl)-2-[3-(1,1,2,2-tetrafluoro-ethoxy)-phenyl]-3,4-dihydro-2H-quinolin-1-yl}-propan-2-ol]
% Inhibition @ 1 μM: 60% and 65%
IC50: 181 nM and 374 nM

Compound: OC(CF)CN1c2cccc(-c3cccc(OC(F)(F)F)c3)c2CCC1c1cccc(OC(F)(F)F)c1 (stereo not drawn) [Compound 49, 1-[2,5-Bis-(3-trifluoromethoxy-phenyl)-3,4-dihydro-2H-quinolin-1-yl]-3-fluoro-propan-2-ol]
% Inhibition @ 1 μM: 63% and 77%
IC50: 331 nM

Compound: OC(CCl)CN1c2cccc(-c3cccc(OC(F)(F)F)c3)c2CCC1c1cccc(OC(F)(F)F)c1 (stereo not drawn) [Compound 48, 1-[2,5-Bis-(3-trifluoromethoxy-phenyl)-3,4-dihydro-2H-quinolin-1-yl]-3-chloro-propan-2-ol]
% Inhibition @ 1 μM: 0%

Compound: CCC1CCc2c(-c3cccc(OC(F)(F)F)c3)cccc2N1CC(O)C(F)(F)F (stereo not drawn) [Compound 35, 3-[2-Ethyl-5-(3-trifluoromethoxy-phenyl)-3,4-dihydro-2H-quinolin-1-yl]-1,1,1-trifluoro-propan-2-ol]
% Inhibition @ 1 μM: 43% and 45%

Compound: OC(CN1c2cccc(Oc3cccc(Cl)c3Cl)c2CCC1c1cccc(OC(F)(F)C(F)F)c1)C(F)(F)F (stereo not drawn) [Compound 86, 3-{5-(2,3-Dichloro-phenoxy)-2-[3-(1,1,2,2-tetrafluoro-ethoxy)-phenyl]-3,4-dihydro-2H-quinolin-1-yl}-1,1,1-trifluoro-propan-2-ol]
inhibition at 1 µM: 67%

Compound: C[C@@H](O)CN1c2cccc(-c3cccc(F)c3)c2CC[C@@H]1c1cccc(OC(F)(F)C(F)F)c1 [Compound 77, (αR,2R)-5-(3-Fluorophenyl)-3,4-dihydro-α-methyl-2-[3-(1,1,2,2-tetrafluoroethoxy)phenyl]-1(2H)-quinolineethanol]
% Inhibition @ 1 μM: 48%
inhibition at 1 µM: 38%

Compound: OC(CN1c2cccc(-c3ccc(C(F)(F)F)cc3)c2CCC1c1cccc(OC(F)(F)C(F)F)c1)C(F)(F)F (stereo not drawn) [Compound 3, 1,1,1-Trifluoro-3-[2-[3-(1,1,2,2-tetrafluoro-ethoxy)-phenyl]-5-(4-trifluoromethyl-phenyl)-3,4-dihydro-2H-quinolin-1-yl]-propan-2-ol]
% Inhibition @ 1 μM: 85%
IC50: 500 nM

The remaining lines, values ahead:

% Inhibition @ 1 μM: 38%
inhibition at 1 µM: 57%
Compound: OC(CN1c2cccc(-c3cccnc3)c2CCC1c1cccc(OC(F)(F)C(F)F)c1)C(F)(F)F (stereo not drawn) [Compound 76, 1,1,1-Trifluoro-3-{5-pyridin-3-yl-2-[3-(1,1,2,2-tetrafluoro-ethoxy)-phenyl]-3,4-dihydro-2H-quinolin-1-yl}-propan-2-ol]

% Inhibition @ 1 μM: 34%
inhibition at 1 µM: 39%
IC50: 110 nM
Compound: C[C@@H](O)CN1c2cccc(-c3cccc(F)c3)c2CC[C@@H]1c1cccc(OC(F)(F)F)c1 [Compound 55]

% Inhibition @ 1 μM: 98% and 87%
IC50: 96 nM
Compound: OC(CN1c2cccc(-c3cccc(C(F)(F)F)c3)c2CCC1c1cccc(OC(F)(F)C(F)F)c1)C(F)(F)F (stereo not drawn) [Compound 13]

% Inhibition @ 1 μM: 18%
Compound: CC(C)Oc1cccc(-c2cccc3c2CCC(c2cccc(OC(F)(F)C(F)F)c2)N3CC(O)C(F)(F)F)c1 (stereo not drawn) [Compound 69, 1,1,1-Trifluoro-3-{5-(3-isopropoxy-phenyl)-2-[3-(1,1,2,2-tetrafluoro-ethoxy)-phenyl]-3,4-dihydro-2H-quinolin-1-yl}-propan-2-ol]

% Inhibition @ 1 μM: 39%
IC50: 290 nM
Compound: OC(CN1c2cccc(-c3cccc(OC(F)(F)F)c3)c2CCC1c1cccc(Cl)c1)C(F)(F)F (stereo not drawn) [Compound 29, 3-[2-(3-Chloro-phenyl)-5-(3-trifluoromethoxy-phenyl)-3,4-dihydro-2H-quinolin-1-yl]-1,1,1-trifluoro-propan-2-ol]

% Inhibition @ 1 μM: 39%
Compound: OC(CN1c2cccc(-c3cccs3)c2CCC1c1cccc(OC(F)(F)C(F)F)c1)C(F)(F)F (stereo not drawn) [Compound 75, 1,1,1-Trifluoro-3-{2-[3-(1,1,2,2-tetrafluoro-ethoxy)-phenyl]-5-thiophen-2-yl-3,4-dihydro-2H-quinolin-1-yl}-propan-2-ol]

% Inhibition @ 1 μM: 13%
Compound: OC(CN1c2cccc(-c3cccc(OC(F)(F)F)c3)c2CCC1c1cccc(Cl)c1)C(F)(F)F (stereo not drawn) [Compound 30, 3-[2-(3-Chloro-phenyl)-5-(3-trifluoromethoxy-phenyl)-3,4-dihydro-2H-quinolin-1-yl]-1,1,1-trifluoro-propan-2-ol]

% Inhibition @ 1 μM: 6%
Compound: OC(CN1c2cccc(-c3cccc(OC(F)(F)F)c3)c2CCC1c1ccccc1)C(F)(F)F (stereo not drawn) [Compound 20, 1,1,1-Trifluoro-3-[2-phenyl-5-(3-trifluoromethoxy-phenyl)-3,4-dihydro-2H-quinolin-1-yl]-propan-2-ol]

inhibition at 1 µM: 0%
Compound: COC[C@@H](O)CN1c2cccc(-c3cccc(OC(F)(F)F)c3)c2CC[C@H]1c1cccc(OC(F)(F)F)c1 [Compound 52]

% Inhibition @ 1 μM: 68% and 44%
IC50: 744 nM
Compound: OC(CCl)CN1c2cccc(-c3cccc(OC(F)(F)F)c3)c2CCC1c1cccc(OC(F)(F)F)c1 (stereo not drawn) [Compound 47, 1-[2,5-Bis-(3-trifluoromethoxy-phenyl)-3,4-dihydro-2H-quinolin-1-yl]-3-chloro-propan-2-ol]

% Inhibition @ 1 μM: 40%
Compound: OC(CN1c2cccc(-c3cccc(F)c3)c2CCC1c1cccc(OC(F)(F)F)c1)C(F)(F)F (stereo not drawn) [Compound 58, 1,1,1-Trifluoro-3-[5-(3-fluoro-phenyl)-2-(3-trifluoromethoxy-phenyl)-3,4-dihydro-2H-quinolin-1-yl]-propan-2-ol]

% Inhibition @ 1 μM: 29%
Compound: CC(C)c1cccc(-c2cccc3c2CCC(c2cccc(OC(F)(F)C(F)F)c2)N3CC(O)C(F)(F)F)c1 (stereo not drawn) [Compound 67, 1,1,1-Trifluoro-3-{5-(3-isopropyl-phenyl)-2-[3-(1,1,2,2-tetrafluoro-ethoxy)-phenyl]-3,4-dihydro-2H-quinolin-1-yl}-propan-2-ol]

% Inhibition @ 1 μM: 42%
Compound: Cc1cc(-c2cccc3c2CCC(c2cccc(OC(F)(F)C(F)F)c2)N3CC(O)C(F)(F)F)ccc1Cl (stereo not drawn) [Compound 6, 3-{5-(4-Chloro-3-methyl-phenyl)-2-[3-(1,1,2,2-tetrafluoro-ethoxy)-phenyl]-3,4-dihydro-2H-quinolin-1-yl}-1,1,1-trifluoro-propan-2-ol]
